Source: patent publication US20100291706A1, “DYE CONJUGATES AND METHODS OF USE” (Millipore Corporation, priority 2009, published 2010)

Assay: Absorbance spectra of cyanine dye stocks
Type: physicochemical
Details: free dye
Procedure: Phycoerythrin conjugates: NGyS, NGy7 and Gy5 dye stocks are resuspended, their absorbances determined and their concentrations calculated. Phycoerythrin (PE) aliquots (2 nmoles) are treated in 0.5 M sodium carbonate pH 9.0 for 1.5 hr at room temperature with: a) 1:15, 1:30, 1:50 or 1:80 fold molar excesses of NGyS; b) 1:15 or 1:30 fold molar excesses of NGy7; or c) 1:30 or 1:50 molar excesses of Gy5. After conjugation, each reaction mixture is loaded on a PD-10 column and eluted with PBS. Fractions containing protein are pooled together for each mixture. Absorbance and fluorescence spectra of the products are obtained and energy transfer efficiency assessed.
Streptavidin conjugates: The concentration of a dye solution is determined through absorbance readings of appropriate dye dilutions. Streptavidin is treated with a molar excess (e.g., 20 fold excess) of dye in sodium carbonate buffer (pH 9.0) for one hour. After conjugation, the mixture is purified on a PD-10 column using PBS as an eluent buffer, and 0.5 mL fractions are collected. Major fractions containing the streptavidin-dye conjugate are pooled together and absorbance and emission spectra are acquired.

**Q.** Which absorption maximum does the source give for `CCN1C(=CC=CC=CC=CC2=[N+](CCCCCC(=O)O)c3ccc(S(=O)(=O)O)cc3C2(C)C)C(C)(C)c2cc(S(=O)(=O)[O-])ccc21` [Cy7] here?
**A.** 751.8 nm
